We go through seven sequences from paper PMC7566095 (iScience, 2020).

Parameters in all cases: species or system HIV
For assay [1], the system named is mAb 447-52D binding to SF162 gp120 protein. Description: Competition peptide ELISA, mAb 447-52D. Particulars: for competition of peptide for binding of mAb 447-52D to gp120 protein: peptide 4-fold serial dilutions beginning at 20 ug/mL.
Assay [2] deals with mAb 257D binding to SF162 gp120 protein. The experiment in a line: Competition peptide ELISA, mAb 257D.
The test system of assay [3] is mAb F240 binding to MN gp41 protein. The experiment in a line: Competition peptide ELISA, mAb F240. Particulars: peptide 4-fold serial dilutions beginning at 20 ug/mL.
Assay [4] has as its system mAb 240D binding to MN gp41 protein. Description: Competition peptide ELISA, mAb 240D. To be noted: peptide 4-fold serial dilutions beginning at 20 ug/mL.
The mark [5] stands for this setting: competition ELISA, SF162 gp120 coated.
The mark [6] stands for this setting: competition ELISA, SF162 gp120 coated, unpaired t test, three replicate experiments.

Bridge positions count the residues as written; N and C are the ends. Ends that are not written are not given here.

Consider RKSIHIGPGRAFY [wild-type V3 peptide], for which the “competition of peptide for binding of mAb 447-52D to gp120 protein” value in assay [1] is reported as “competed for binding”. For the same sequence, in assay [2] (peptide 4-fold serial dilutions beginning at 20 ug/mL), the “competition of peptide for binding of mAb 257D to gp120 protein” value is recorded as “competed for binding”.
For the sequence RKSIHIGPGWAFY [R315W], in assay [1] (setting [5]), the “fold increase in IC50 versus wild-type V3 peptide, mAb 447-52D” value is 72 fold. The “fold increase in IC50 versus wild-type V3 peptide, mAb 257D” value in assay [2] (setting [5]) is reported as 5 fold.
On to RKSIHIGPGRATY [F317T], for which the “competition of peptide for binding of mAb 447-52D to gp120 protein” value in assay [1] is “improved binding above wild-type levels”.
In the case of “LLGIWGCSGKLICTTNVP (disulfide 7-13 (inferred)) [wild-type gp41 peptide]”, the “competition of peptide for binding of mAb F240 to gp41 protein” value in assay [3] was “competed for binding”. In addition, in assay [4], the “competition of peptide for binding of mAb 240D to gp41 protein” value is recorded as “competed for binding”.
For the sequence LLGIWGDSGKLICTTNVP [C598D], the “competition of peptide for binding of mAb F240 to gp41 protein” value in assay [3] was “no longer competes for binding”. Moreover, in assay [4], the “competition of peptide for binding of mAb 240D to gp41 protein” value was “no longer competes for binding”.
On to RTSIHIGPGRAFY [K305T], for which the “IC50 of peptide compared with wild-type V3 peptide, mAb 447-52D” value in assay [1] (setting [6]) is “did not yield IC50 values that were significantly different from the wild-type peptide”.
On to EKSIHIGPGRAFY [R304E], for which the “IC50 of peptide compared with wild-type V3 peptide, mAb 257D” value in assay [2] (setting [6]) is listed as “did not yield IC50 values that were significantly different from the wild-type peptide”.
